Experiments:
mushroom tyrosinase = test: tyrosinase activity inhibition assay; assay type: biochemical; settings: 10, 100, 1000 and 10000 ppm; 37° C., 1 hour; FIG. 2
Description: As a specific experimental method, mushroom tyrosinase was diluted with a 0.1 M sodium phosphate buffer at 2 unit/ul and dissolved in water at 0.03 wt % of tyrosine. Each experiment group listed in the following Table 1 was also diluted in the 0.1 M sodium phosphate buffer at 10, 100, 1000, and 10000 ppm and mixed as listed in Table 1. Reaction was performed at 37° C. for 1 hour and absorbance was measured, respectively (wavelength: 490 nm, Epoch, BioTek). Based on the results, a tyrosinase inhibition ratio relative to a control group was calculated. [table]

[1] = tested on: keratinocytes (HEKn) with ATG5 knocked down; test: melanin pigmentation inhibition and autophagy proteins in ATG5 knocked-down keratinocytes; assay type: cell-based, human; settings: 10 μM, FIG. 10; for expression activity of LC3-II and ATG5: western blot
From the text: In order to analyze whether melanin deposition inhibition activity on keratinocytes by treatment with Compound 1 and Compound 2 depends on autophagy activation, ATG5 which is the protein required for autophagy activation was knocked down and treated with melanin to analyze a pigmentation inhibition activity change.
As a specific experimental method, ATG5 siRNA was mixed according to the method of transfection reagent (RNAiMAX, cat #13778-075, Thermo) and deposited in keratinocytes (HEKn, cat # C0015C, Gibco). After 8 hours, Compound 1 and Compound 2 were diluted with Epilife (cat # MEPI500CA, Gibco) without a supplement and an antibiotic to a final concentration of 10 μM for treatment, and cells which were further cultured for 64 hours were dissolved using a cell lysis buffer containing a proteolysis inhibitor. The entire dissolved solution was fractionized using a centrifuge and only the solution containing proteins was extracted. The extracted proteins were quantified by a bicinchoninic acid (BCA) method. 20 μg of proteins were separated by 10% SDS-polyacrylamide gel electrophoresis and transferred to a nitrocellulose film. The film to which the proteins were transferred was blocked by a tris-buffered saline/0.05% Tween-20 (TBS-T) solution containing 5% BSA (bovine serum albumin, Gendepot, Cat # A0100-010) for decreasing a non-specific bonding at room temperature for 1 hour, and then a primary antibody was reacted under the condition of 4° C. overnight and a secondary antibody was reacted at room temperature for 1 hour. For visualization, an enhance chemiluminescence system was used. Then, in order to analyze melanin pigmentation inhibition activity, transfection and treatment with the compounds were performed identically, and then 10 mg/ml of melanin was added by 2 μl at a time and culturing was further performed for 2 hours. The culture medium was removed after completion of culturing, cells were separated from the plate using Trypsin-EDTA (cat # LS-015-09, WELGENE), transferred to a 1.5 ml tube and spun down, a photograph of the pellet was taken, and the absorbance of a solution of the pellet dissolved in 1N NaOH was measured (wavelength: 400 nm, Epoch, BioTek).

[2] = tested on: keratinocytes (human primary keratinocyte, HEKn); test: MTT assay in keratinocytes; assay type: cell-based; settings: 5, 10 and 50 μM, 4 days, FIG. 4
Description: (§1) In order to confirm a treatment concentration of Compound and Compound 2 obtained in the above Examples having no cytotoxicity thereby, an MTT assay was performed.
(§2) As a specific experimental method, in order to confirm cytotoxicity depending on the treatment concentration of Compound 1 and Compound 2, apoptosis analysis was performed in melanin cells (human primary melanocyte, HEMn-DP, cat # C2025C, Gibco) and keratinocytes (human primary keratinocyte, HEKn, cat # C0015C, Gibco). Cells were deposited to the number of 1×10^4 cells/well in a 96 well plate and cultured in an incubator for 24 hours under the condition of 37° C. and 5% CO2.
(§3) Each of Compound 1 and Compound 2 obtained in the above Examples was dissolved in distilled water (DW) at a concentration of 100 mM to form a concentrated solution, which was diluted with a medium, and treatment was performed at concentrations of 5, 10, and 50 μM. After 4 days, the medium of the plate was removed and the plate was treated with 100 μl of an MTT reagent (Sigma, 0.5 mg/ml). After 4 hours, the reagent was removed, dimethyl sulfoxide (DMSO) was added thereto, and absorbance was measured (wavelength: 570 nm, Epoch, BioTek). Here, cell viability was calculated as a percentage to absorbance of a control group (blank) which was not treated with the compound.

[3] = tested on: human-derived keratinocytes (HEKn); test: melanin pigmentation in keratinocytes after melanin treatment; assay type: cell-based; settings: 48 hours treatment, then melanin 2 hours; absorbance 400 nm; FIG. 9
Description: In order to analyze how Compound 1 and Compound 2 obtained in the above Examples affect melanin pigmentation, a degree of pigmentation inhibition by melanin treatment was analyzed.
As a specific experimental method, human-derived keratinocytes (HEKn, cat # C0015C, Gibco) were constantly deposited to the number of 1×10^5 in a 6 well plate for culturing and cultured in an incubator for 24 hours under the condition of […] and 5% CO2 in EpiLife (cat # MEPI500CA, Gibco). Each of Compound 1 or Compound 2 obtained in the above Examples was dissolved at a concentration of 100 mM to form a concentration solution, which was diluted in a medium at a concentration of 20 μM, 1 ml of each diluted solution was added to each well containing 1 ml of the medium first for treatment and cultured for 48 hours, and 10 mg/ml of melanin was added by 2 μl at a time and culturing was further performed for 2 hours. The medium was removed after completion of culturing, cells were separated from the plate using Trypsin-EDTA (cat # LS-015-09, WELGENE), transferred to a 1.5 ml tube and spun down, a photograph of the pellet was taken, and the absorbance of a solution of the pellet dissolved in 1N NaOH was measured (wavelength: 400 nm, Epoch, BioTek).

keratinocytes (HEKn) = test: melanosome degradation: confocal and transmission electron microscopy of keratinocytes given melanosomes; assay type: cell-based, human; settings: 10 μM; confocal microscope; FIG. 11
Description: In order to confirm whether melanosome and autuphagosome are co-localized by treatment with Compound 1 and Compound 2 obtained in the above Examples, analysis was performed with an electron microscope and a confocal microscope.
As a specific experimental method, Lysis Buffer (Tris 20 mM, NaCl 150 mM, EDTA 1 mM, sucrose 250 mM in DW) was added to melanin cells (HEMn-DP, cat # C2025C, Gibco) containing human-derived melanin at high concentration, freezing and thawing were repeated twice to break a cell membrane, and centrifugation was performed at 1000×g for 5 minutes, thereby obtaining a supernatant. Cushion Buffer (Tris 20 mM, NaCl 150 mM, EDTA 1 mM, sucrose 1.5M in DW) was placed in an ultracentrifuge tube, the same amount of supernatant was added thereto, and then centrifugation was performed under the conditions of 25,000 rpm, […], and 4° C., thereby obtaining melanosomes. The concentration of melanosomes was measured using synthesized melanin (cat # M8631, sigma) as a standard. Keratinocytes (HEKn, cat # C0015C, Gibco) was deposited in a 6 well by 1×10^5 cells/well at a time and cultured for one day. Treatment with 10 μM of Compound 1 and compound 2 each was performed, culturing was performed for one day, separated melanosomes (5 μg/well) was added, and culturing was further performed for 2 days. […]

[4] = tested on: PAR-2 gene in keratinocytes (HEKn); test: qPCR of endocytosis-related gene PAR2 in keratinocytes; assay type: cell-based, human; settings: FIG. 8
Description: (§4) For intracellular autophagy analysis by treatment with Compound 1 obtained in the above Example, a western blot was performed on a LC3 (light chain 3; autophagy marker) protein. In addition, for analysis of change in endocytosis-related genes by treatment with Compound 2 obtained in the above Example, qPCR was performed on PAR2, AAK1 (AP2 Associated Kinase 1).
As a specific experimental method, from keratinocytes (HEKn, cat # C0015C, Gibco) treated with Compound 2, RNA was extracted using a RNeasy mini kit (cat #74106, QIAGEN), cDNA was synthesized using a cDNA synthesis kit (cat # FSQ-201, TOYOBO), and then a PAR2(F: CTCTCCTGCAGTGGCACCAT; R: GATGTGCCATCAACCTTACCAA) primer and POWER SYBR MASTER MIX (cat #4367659, Thermo) were mixed at a recommended ratio with the synthesized cDNA, and qPCR was performed with QuantStudio 3 equipment (cat # A28131, Thermo).

[5] = tested on: human-derived melanin cells (HEMn-DP); MITF, Tyrosinase mRNA; test: melanosome maturation-related genes (qPCR) and melanin content in melanin cells; assay type: cell-based; settings: 1 ml of 20 μM added to 1 ml medium, 48 hours, FIGS. 5 to 7
Description: In order to analyze how Compound 1 and Compound 2 obtained in the above Examples affect melanosome maturation, an amount of melanosome maturation-related mRNA after treated with Compound 1 and Compound 2 was analyzed with qPCR and a melanin content was measured with absorbance.
As a specific experimental method, human-derived melanin cells (HEMn-DP, cat # C2025C, Gibco) were constantly deposited to the number of 1×10^5 in a 6 well plate for culturing and cultured in an incubator for 24 hours under the condition of 37° C. and 5% CO2 in M254 (cat # M-254-500, Gibco). Each of Compound 1 and Compound 2 was dissolved in DW at a concentration of 100 mM to form a concentration solution, which was diluted in a medium at a concentration of 20 μM, 1 ml of each diluted solution was added to each well containing 1 ml of the medium first for treatment and cultured for 48 hours, and RNeasy mini kit (cat #74106, QIAGEN) was used to extract RNA from melanin cells. […] Then, the experiment was performed identically, the medium was removed after completion of culturing, melanin cells were separated from the plate using Trypsin-EDTA (cat # LS-015-09, WELGENE), transferred to a 1.5 ml tube, and spun down, a photograph of the pellet was taken, and the absorbance of a solution of the pellet dissolved in 1N NaOH was measured (wavelength: 400 nm, Epoch, BioTek).

[6] = tested on: melanin cells (human primary melanocyte, HEMn-DP); test: MTT assay in melanocytes; assay type: cell-based; settings: 5, 10 and 50 μM, 4 days, FIG. 3
Description: as §1, §2, §3

[7] = tested on: LC3 (light chain 3; autophagy marker) in keratinocytes (HEKn); test: western blot on LC3 protein in keratinocytes (autophagy activation); assay type: cell-based, human; settings: FIG. 8
Description: as §4
As a specific experimental method, keratinocytes (HEKn, cat # C0015C, Gibco) was treated with Compound 1 and dissolved using a cell lysis buffer containing a proteolysis inhibitor. The entire dissolved solution was fractionized using a centrifuge and only the solution containing proteins was extracted. The extracted proteins were quantified by a bicinchoninic acid (BCA) method. 20 μg of proteins were separated by 10% SDS-polyacrylamide gel electrophoresis and transferred to a nitrocellulose film. The film to which the proteins were transferred was blocked by a tris-buffered saline/0.05% Tween-20 (TBS-T) solution containing 5% non-fat milk for decreasing a non-specific bonding at room temperature for 1 hour, and then a primary antibody was reacted under the condition of 4° C. overnight and a secondary antibody was reacted at room temperature for 1 hour. For visualization, an enhanced chemiluminescence system was used.

SMILES | tyrosinase activity inhibition (mushroom tyrosinase) | melanin amount in keratinocytes [1] | expression activity of LC3-II and ATG5 [1] | cytotoxicity (MTT, cell viability) [2] | melanin pigmentation on keratinocytes [3] | co-localization of increased autophagosomes with melanosomes (keratinocytes (HEKn)) | expression of the PAR-2 gene [4] | influence on melanosome maturation activity (tyrosinase and MITF mRNA, melanin content) [5] | cytotoxicity (MTT, cell viability) [6] | production of LC3-II (matured autophagosome) [7]
O=C(O)CN(CCCC[C@@H](C(=O)N1C[C@H](O)C[C@H]1C(=O)O)N(CC(=O)O)CC(=O)O)CC(=O)O [Compound 2] | did not inhibit tyrosinase activity | not decreased | inhibited | almost no cytotoxicity | effectively inhibited | co-localized with melanosomes | decreased | almost no influence | almost no cytotoxicity | 
CC(=O)N1C[C@H](O)C[C@H]1C(=O)NCCCC[C@H](NC(=O)[C@H](CCCCN(CC(=O)O)CC(=O)O)N(CC(=O)O)CC(=O)O)C(=O)O [Compound 1] | did not inhibit tyrosinase activity | not decreased | inhibited | almost no cytotoxicity | effectively inhibited | co-localized with melanosomes |  | almost no influence | almost no cytotoxicity | increased

Reference: patent US10618874B2, “Compounds, cosmetic composition and pharmaceutical composition comprising the same” (INCOSPHARM CORPORATION, priority 2018, dated 2020)
